Experimental data from US10183933B2, “Isoindolinone inhibitors of phosphatidylinositol 3-kinase” (Vertex Pharmaceuticals Incorporated, priority 2009, dated 2019).

Columns and labels:
[1] = molecular target: PI3K-gamma (Homo sapiens, UniProt P48736); assay: PI3K inhibition assay (33P-ATP, PI(4,5)P2 substrate), PI3K-gamma; type: biochemical; also: 2 nM enzyme
Procedure: One test well also contained 1.5 μL of DMSO with no compound. […] Using a Titertek Multidrop, 50 μL of Reaction Mix [100 mM HEPES pH 7.5, 50 mM NaCl, 10 mM DTT, 0.2 mg/mL BSA, 60 μM phosphatidylinositol(4,5)bisphosphate diC16 (PI(4,5)P2; Avanti Polar Lipids, Cat. No. 840046P) and PI3K isoform of interest (see Table 3 for isoform concentrations)] was added to each well. To initiate the reaction, 50 μL of ATP Mix [20 mM MgCl2, 6 μM ATP (100 μCi/μmole ^33P-ATP)] was added each well, followed by incubating the wells for 30 min. at 25° C. Final concentrations in each well were 50 mM HEPES 7.5, 10 mM MgCl2, 25 mM NaCl, 5 mM DTT, 0.1 mg/mL BSA, 30 μM PI(4,5)P2, 3 μM ATP, and the PI3K isoform of interest (see Table 2). Final compound concentrations in each well ranged from 10 μM to 1 nM.
After incubation, the reactions in each well were quenched by addition of 50 μL of stop solution [30% TCA/Water, 10 mM ATP]. […] 50 μL of scintillation fluid was added to each well and the plate read on a Perkin-Elmer TopCount™ NXT liquid scintillation counter to obtain ^33P-counts representing inhibition values.
The value for the background well was subtracted from the value obtained for each test well and the data were fit to the competitive tight binding Ki equation described by Morrison and Stone, Comments Mol. Cell Biophys.

[2] = system: activated microglia; assay: Microglia activation assay (LPS-treated mice, Iba1 IHC of brain); type: in vivo; conditions: 10 mg/kg b.i.d. oral, LPS 0.5 mg/kg i.p., female C57Bl/6J mice
Procedure: Female C57Bl/6J mice (7 weeks old) were purchased from Jackson Laboratory (Maine, US). Animals were acclimated for a week at standard laboratory conditions (12 hrs light cycles) with free access to rodent chow and water. All procedures were in accordance with the National Institute of Health Guidelines for the care and Use of Laboratory Animals and were approved by IACUCC. The endotoxin Lipopolysaccharide (LPS) (E. coli 011:B4, cat #437627) was purchased from Calbiochem. LPS was dissolved in PBS buffer at a concentration of 0.05 mg/ml and stored in frozen aliquots. At the start of the study, mice received an intraperitoneal (i.p.) injection of LPS (0.5 mg/kg) for three consecutive days. Therapeutic treatment with VRT compounds was started together with the 2nd LPS administration and maintained throughout the study. Compound was dosed twice a day orally by gavage for a total of 4 doses. 24 h following the last LPS injection, and 2 hrs following the last VRT dose, animals were sacrificed by CO2 asphyxiation. […]
Digital images were captured using the Aperio ScanScope Slide Scanner (Aperio Technologies, Vista, Calif.). Images were captured at 20× optical magnification, and analyzed using the software Definiens Developer XD. […] Compound efficacy was calculated as percent decrease in number of activated microglia relative to vehicle control.

Chain of PI3K-gamma (P48736 whole entry, species assumed, canonical isoform): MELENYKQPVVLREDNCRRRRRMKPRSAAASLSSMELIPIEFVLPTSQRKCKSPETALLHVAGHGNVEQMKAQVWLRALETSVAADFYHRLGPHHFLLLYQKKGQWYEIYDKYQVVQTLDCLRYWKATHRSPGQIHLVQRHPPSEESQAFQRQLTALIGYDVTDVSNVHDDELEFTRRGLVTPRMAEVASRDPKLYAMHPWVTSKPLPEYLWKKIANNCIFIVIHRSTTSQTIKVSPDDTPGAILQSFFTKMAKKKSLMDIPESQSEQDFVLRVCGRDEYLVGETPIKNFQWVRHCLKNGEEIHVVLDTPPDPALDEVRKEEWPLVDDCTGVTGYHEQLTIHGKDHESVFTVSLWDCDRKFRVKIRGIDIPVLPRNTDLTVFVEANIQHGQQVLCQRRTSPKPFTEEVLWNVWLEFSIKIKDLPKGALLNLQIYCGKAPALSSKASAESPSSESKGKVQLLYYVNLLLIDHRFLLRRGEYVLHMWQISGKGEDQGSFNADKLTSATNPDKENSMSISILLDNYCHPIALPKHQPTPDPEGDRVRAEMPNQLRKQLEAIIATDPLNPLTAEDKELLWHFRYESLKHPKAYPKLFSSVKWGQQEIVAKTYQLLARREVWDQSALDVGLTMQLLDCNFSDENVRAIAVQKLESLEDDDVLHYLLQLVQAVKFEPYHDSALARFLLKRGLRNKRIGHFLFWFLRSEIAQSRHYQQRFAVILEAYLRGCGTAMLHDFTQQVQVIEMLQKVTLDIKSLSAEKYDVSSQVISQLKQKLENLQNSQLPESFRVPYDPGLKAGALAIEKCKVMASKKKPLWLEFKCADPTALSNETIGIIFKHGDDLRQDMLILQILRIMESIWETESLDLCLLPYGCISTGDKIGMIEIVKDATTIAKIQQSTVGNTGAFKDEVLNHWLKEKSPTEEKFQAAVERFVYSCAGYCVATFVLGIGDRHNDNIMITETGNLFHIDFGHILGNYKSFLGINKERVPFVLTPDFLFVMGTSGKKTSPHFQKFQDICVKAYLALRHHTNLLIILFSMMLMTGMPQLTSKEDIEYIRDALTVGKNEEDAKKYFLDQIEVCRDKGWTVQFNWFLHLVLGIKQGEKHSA

| SMILES | Ki [1] | percent decrease in number of activated microglia relative to vehicle control [2] |
| --- | --- | --- |
| COc1cc(-c2ccc3c(c2)CN(c2cn[nH]c2)C3=O)cnc1OC [Compound 13] | 100 to 490 nM | – |
| N#CCn1cc(N2Cc3cc(-c4cncc(S(N)(=O)=O)c4)ccc3C2=O)cn1 [Compound 76] | 100 to 490 nM | – |
| Cc1cc(-c2cncc(OC(F)F)c2)nc2c1C(=O)N(c1cnn(CC(F)(F)F)c1)C2 [Compound 271] | – | 39% |
| COc1cc(-c2ccc3c(n2)C(N2CCCN(C)CC2)N(c2cnn(CC(F)(F)F)c2)C3=O)cnc1OC (centres unmarked) [Compound 663] | 500 to 2500 nM | – |
| COc1cncc(-c2cc(C)c3c(n2)C(OC)N(c2cc[nH]n2)C3=O)c1 (centres unmarked) [Compound 759] | 500 to 2500 nM | – |
| CO/N=C/c1cncc(-c2cc(C)c3c(n2)C(C)(C)N(c2cnn(CC(F)(F)F)c2)C3=O)c1 [Compound 883] | < 100 nM | – |
| Cc1cc(-c2cncc([S@+](C)[O-])c2)nc2c1C(=O)N(c1cnn(CC(F)(F)F)c1)C2(C)C [Compound 967] | < 100 nM | – |
| Cc1cc(-c2cncc([S@@+](C)[O-])c2)nc2c1C(=O)N(c1cnn(CC(F)(F)F)c1)C2(C)C [Compound 968] | < 100 nM | – |

Second part, led by results:

| Ki [1] | SMILES | percent decrease in number of activated microglia relative to vehicle control [2] |
| --- | --- | --- |
| < 100 nM | Cc1cc(-c2cncc(OCC(F)F)c2)nc2c1C(=O)N(c1ccn(C3CCOC3)n1)C2 (single isomer, unassigned) [Compound 863] | – |
| < 100 nM | Cc1cc(-c2cnc(C)c(OCC(F)F)c2)nc2c1C(=O)N(c1ccn(C3CCOC3)n1)C2 (single isomer, unassigned) [Compound 864] | – |
| < 100 nM | Cc1cc(-c2cncc(S(=O)(=O)N(C)C)c2)nc2c1C(=O)N(c1ccn(C3CCOC3)n1)C2 (single isomer, unassigned) [Compound 954] | – |
| 500 to 2500 nM | COc1cc(-c2ccc3c(n2)CN(c2ccc(N(C)CCN(C)C)nc2)C3=O)cnc1OC [Compound 195] | – |
| 500 to 2500 nM | COc1cc(-c2ccc3c(n2)[C@@H](N2CCOCC2)N(c2cnn(CC(F)(F)F)c2)C3=O)cnc1OC [Compound 665] | – |
| 100 to 490 nM | COc1cncc(-c2cc(C)c3c(n2)C(C)(C)N(c2ccn(C[C@H](C)O)n2)C3=O)c1 [Compound 872] | – |
